“And” between values parts separate entries of the source, which are not always exact repeats. Equal values may be shown once. “Also recorded” adds a separate entry of the source. Read-outs that look alike come from different tables or passages of the source.

Series [1] can be described thus: Oral administration of Compound PC-1 and SBTI in the presence of ovalbumin to rats: hydromorphone in plasma. Particulars: for Cmax of hydromorphone in rat plasma: PC-1 20 mg/kg PO; for plasma Tmax of hydromorphone: rats; for Effect on Compound PC-1's ability to release hydromorphone: rats PO, PC-1 20 mg/kg with ovalbumin and/or SBTI. The procedure: In an effort to understand the role of SBTI, ovalbumin was used as a non-trypsin inhibitor protein control. Albumin from chicken egg white (ovalbumin) (Catalog No. A7641, Grade VII, lyophilized powder, Sigma-Aldrich) was dissolved in saline.

The nature of series [2]: Oral administration of Compound PC-1 and BBSI inhibitor to rats: hydromorphone in blood. Particulars: PC-1 20 mg/kg PO.
Series [3] in a line: Oral administration of Compound PC-1 and SBTI trypsin inhibitor to rats: hydromorphone in blood. The following applies: for Cmax of hydromorphone in rat blood: PC-1 20 mg/kg PO.
Series [4] has as its target T1, trypsin from bovine pancreas (Bos taurus, UniProt P00760).
T1 sequence (P00760 24-246): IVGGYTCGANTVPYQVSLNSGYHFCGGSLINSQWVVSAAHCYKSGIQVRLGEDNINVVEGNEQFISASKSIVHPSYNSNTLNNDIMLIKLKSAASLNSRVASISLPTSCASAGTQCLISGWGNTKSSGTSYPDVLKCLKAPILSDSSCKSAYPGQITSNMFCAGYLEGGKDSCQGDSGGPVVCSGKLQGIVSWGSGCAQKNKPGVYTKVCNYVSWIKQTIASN
The experiment in a line: In vitro trypsin conversion of prodrugs to hydromorphone and inhibition by trypsin inhibitor.
Description: The reactions were conducted at 37° C. for 24 hr. Samples were collected at specified time points, transferred into 0.5% formic acid in acetonitrile to stop trypsin activity and stored at less than −70° C. until analysis by LC-MS/MS.
The results are expressed as half-life of prodrug when exposed to trypsin (i.e., Prodrug trypsin half-life) in hours and rate of formation of HM per unit of trypsin.

The nature of series [5]: Oral administration of Compound PC-2 and SBTI to rats: hydromorphone in plasma. The following applies: for Cmax of hydromorphone in rat plasma: PC-2 20 mg/kg PO.
The conditions of series [6]: PC-3 20 mg/kg PO.
For series [7] the following is noted: for Cmax of hydromorphone in rat plasma / Tmax of hydromorphone in rat plasma: PC-3 20 mg/kg PO.
The conditions of series [8]: PC-4 20 mg/kg PO.
The conditions of series [9]: for Cmax of HM in rat plasma / Tmax of HM in rat plasma: PC-4 20 mg/kg PO.
The target in series [10] is T2, trypsin (Bos taurus, UniProt P00760).
T2 sequence (P00760 24-246): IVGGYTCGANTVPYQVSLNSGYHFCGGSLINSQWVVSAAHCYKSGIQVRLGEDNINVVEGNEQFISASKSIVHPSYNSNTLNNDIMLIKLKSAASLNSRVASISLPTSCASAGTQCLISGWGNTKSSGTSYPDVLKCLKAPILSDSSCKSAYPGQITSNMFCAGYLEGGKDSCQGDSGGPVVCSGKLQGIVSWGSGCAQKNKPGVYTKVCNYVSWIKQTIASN
In words: In vitro IC50, modified trypsin assay. The series is classed as biochemical.

The mark [11] stands for this setting: No trypsin inhibitor, 0.761 mM prodrug, 37° C., Tris pH 8.

On to `CC(=O)NC(CCCNC(=N)N)C(=O)NCCN(C)C(=O)Oc1ccc2c3c1OC1C(=O)CCC4C(C2)N(C)CCC314` (stereo not drawn) [Compound PC-1, Hydromorphone 3-(N-methyl-N-(2-N′-acetylarginylamino)) ethylcarbamate], for which the “Cmax of hydromorphone in rat plasma” value in [1] (OVA 0 mg/kg, SBTI 0 mg/kg) stood at 13.3 ± 3.7 ng/mL; in [1] (OVA 20 mg/kg, SBTI 0 mg/kg), 11.0 ± 5.4 ng/mL; in series [1] (OVA 100 mg/kg, SBTI 0 mg/kg), 9.7 ± 3.1 ng/mL; in series [1] (OVA 500 mg/kg, SBTI 0 mg/kg) it was 11.6 ± 2.5 ng/mL; in series [1] (OVA 500 mg/kg, SBTI 500 mg/kg), 1.9 ± 0.9 ng/mL; in [1] (OVA 1000 mg/kg, SBTI 0 mg/kg), 10.3 ± 3.5 ng/mL. Besides, the “plasma Tmax of hydromorphone” value in [1] (20 mg/kg Compound PC-1 alone) amounted to 2.3 h; in [1] (20 mg/kg Compound PC-1 with 500 mg/kg OVA and 500 mg/kg SBTI) it was 8.0 h. Further, the “Cmax of hydromorphone in rat blood” value in series [2] (BBSI 0 mg/kg, n = 4) amounted to 16.5 ± 5.3 ng/mL; in series [2] (BBSI 100 mg/kg, n = 3 (3 of the 4 rats)), 10.6 ± 5.9 ng/mL; in [2] (BBSI 100 mg/kg, n = 4), 18.7 ± 17.0 ng/mL; in [3] (SBTI 0 mg/kg), 16.5 ± 5.3 ng/mL; in series [3] (SBTI 10 mg/kg), 8.9 ± 1.8 ng/mL; in series [3] (SBTI 100 mg/kg), 6.0 ± 4.0 ng/mL. The “Cmax of hydromorphone in rat blood” value in series [3] (SBTI 500 mg/kg) and in [3] (SBTI 1000 mg/kg) was less than 5 ng/mL each time. For the same molecule, the “Cmax of rat not included in n = 3 analysis” value in [2] (BBSI 100 mg/kg, individual rat, blood) turned out to be 43 ng/mL. In addition, the “Cmax range of other rats” value in [2] (BBSI 100 mg/kg, the 3 other rats, blood) lay in the range of 6.8 to 17 ng/mL. Further, the “Rate of HM formation, umols/h/umol trypsin Average ± sd” value in [4] (setting [11]) was 230 ± 8 umols/h/umol trypsin.

As for `CN(CCNC(=O)[C@@H](N)CCCNC(=N)N)C(=O)Oc1ccc2c3c1OC1C(=O)CCC4C(C2)N(C)CCC314` (stereo partly drawn) [Compound PC-2, [2-((S)-2-amino-5-guanidino-pentanoylamino)-ethyl]-methyl-carbamic acid hydromorphyl ester], the figures for the “Cmax of hydromorphone in rat plasma” value in series [5] (SBTI 0 mg/kg) and in series [5] (SBTI 500 mg/kg) were 14.2 ± 2.6 ng/mL and 7.3 ± 3.5 ng/mL, respectively.

Consider `CC(=O)N[C@@H](CCCCN)C(=O)NCCN(C)C(=O)Oc1ccc2c3c1OC1C(=O)CCC4C(C2)N(C)CCC314` (stereo partly drawn) [Compound PC-3, (S)-2-Acetylamino-6-amino-hexanoic acid (2-methylamino-ethyl)-amide hydromorphone ester], for which, in series [6] (Compound 101 0 mg/kg), the “Cmax of HM in rat plasma” value worked out at 9.0 ± 3.1 ng/mL and the “Tmax of HM in rat plasma” value came to 2.3 h. For the same molecule, in series [6] (Compound 101 10 mg/kg), the “Cmax of HM in rat plasma” value is 3.8 ± 2.9 ng/mL and the “Tmax of HM in rat plasma” value was 3.5 h. In series [7] (SBTI 0 mg/kg), the “Cmax of hydromorphone in rat plasma” value was found to be 9.0 ± 3.1 ng/mL and the “Tmax of hydromorphone in rat plasma” value worked out at 2.3 h. Besides, in [7] (SBTI 500 mg/kg), the “Cmax of hydromorphone in rat plasma” value amounted to 2.3 ± 1.7 ng/mL and the “Tmax of hydromorphone in rat plasma” value came out at 7.3 h.

Take `CCN(CCNC(=O)[C@H](CCCNC(=N)N)NC(C)=O)C(=O)Oc1ccc2c3c1OC1C(=O)CCC4C(C2)N(C)CCC314` (stereo partly drawn) [Compound PC-4, [2-((S)-2-Acetylamino-5-guanidino-pentanoylamino)-ethyl]-ethyl-carbamic acid hydromorphone ester]: the “Cmax of HM in rat plasma” value stood at 7.7 ± 2.3 ng/mL in [8] (Compound 101 0 mg/kg, n = 7); 4.8 ± 1.4 ng/mL in series [8] (Compound 101 10 mg/kg, n = 4); 7.7 ± 2.3 ng/mL in [9] (SBTI 0 mg/kg, n = 7); 7.5 ± 2.1 ng/mL in series [9] (SBTI 500 mg/kg, n = 4). Moreover, the “Tmax of HM in rat plasma” value in [8] (Compound 101 0 mg/kg, n = 7) was 2.3 h; in [8] (Compound 101 10 mg/kg, n = 4) it was 6.0 h; in series [9] (SBTI 0 mg/kg, n = 7), 2.3 h; in [9] (SBTI 500 mg/kg, n = 4), 6.5 h. For the same molecule, the “Rate of HM formation, umols/h/umol trypsin Average ± sd” value in series [4] (setting [11]) was 322 umols/h/umol trypsin and 243 ± 1 umols/h/umol trypsin; in series [4] (With trypsin inhibitor 3,089 uM Compound 109) it was 3.27 ± 1.87 umols/h/umol trypsin.

For `CCN(CCNC(=O)[C@H](CCCCN)NC(=O)CC(=O)O)C(=O)Oc1ccc2c3c1O[C@H]1C(=O)CC[C@H]4[C@@H](C2)N(C)CC[C@]314` [Compound PC-5, [2-((S)-2-malonylamino-4-amino-pentanoylamino)-ethyl]-ethyl-carbamic acid hydromorphone ester], the “Rate of HM formation, umols/h/umol trypsin Average ± sd” value in series [4] (setting [11]) is recorded as 106 ± 2 umols/h/umol trypsin.

`CCN(CCNC(=O)C(CCCNC(=N)N)NC(=O)CC(=O)O)C(=O)Oc1ccc2c3c1OC1C(=O)CCC4C(C2)N(C)CCC314` (stereo not drawn) [Compound PC-6, [2-(2-Malonyl-5-guanidino-pentanoylamino)-ethyl]-ethyl-carbamic acid hydromorphone ester]: in [4] (setting [11]), the “Rate of HM formation, umols/h/umol trypsin Average ± sd” value stood at 262 ± 11 umols/h/umol trypsin.

B1: ovalbumin: Albumin from chicken egg white, used as a non-trypsin inhibitor protein control (protein, UniProt P01012 2-386, looked up)
Ovalbumin: GSIGAASMEFCFDVFKELKVHHANENIFYCPIAIMSALAMVYLGAKDSTRTQINKVVRFDKLPGFGDSIEAQCGTSVNVHSSLRDILNQITKPNDVYSFSLASRLYAEERYPILPEYLQCVKELYRGGLEPINFQTAADQARELINSWVESQTNGIIRNVLQPSSVDSQTAMVLVNAIVFKGLWEKAFKDEDTQAMPFRVTEQESKPVQMMYQIGLFRVASMASEKMKILELPFASGTMSMLVLLPDEVSGLEQLESIINFEKLTEWTSSNVMEERKIKVYLPRMKMEEKYNLTSVLMAMGITDVFSSSANLSGISSAESLKISQAVHAAHAEINEAGREVVGSAEAGVDAASVSEEFRADHPFLFCIKHIATNAVLFFGRCVSP
As for B1, in series [1], the “Effect on Compound PC-1's ability to release hydromorphone” value is on record as “does not significantly affect Compound PC-1's ability to release hydromorphone”.

B2: SBTI: trypsin inhibitor from Glycine max (soybean) (Catalog No. 93620, ˜10,000 units per mg, Sigma-Aldrich) (protein, UniProt P01070 25-205, looked up)
Trypsin inhibitor A: DFVLDNEGNPLENGGTYYILSDITAFGGIRAAPTGNERCPLTVVQSRNELDKGIGTIISSPYRIRFIAEGHPLSLKFDSFAVIMLCVGIPTEWSVVEDLPEGPAVKIGENKDAMDGWFRLERVSDDEFNNYKLVFCPQQAEDDKCGDIGISIDHDDGTRRLVVSKNKPLVVQFQKLDKESL
As to B2, the “Effect on Compound PC-1's ability to release hydromorphone” value in series [1] is reported as “suppresses Cmaxand delays Tmax of such hydromorphone in plasma, even in the presence of ovalbumin; also recorded: acting specifically by inhibiting trypsin rather than in a non-specific manner”. The IC50 in series [10] worked out at 270 nM. Moreover, the “Effect of SBTI on Compound PC-2's ability to release hydromorphone” value in [5] (rats PO, PC-2 20 mg/kg with 500 mg/kg SBTI) is listed as “attenuates Compound PC-2's ability to release hydromorphone, both with respect to suppressing Cmaxand delaying Tmax”. Besides, the “Effect of SBTI on Compound PC-1's ability to release hydromorphone” value in series [3] (rats PO, PC-1 20 mg/kg with 10, 100, 500 or 1000 mg/kg SBTI) is “attenuates Compound PC-1's ability to release hydromorphone in a dose-dependent manner that can approach approximately 100% attenuation at higher SBTI concentrations; also recorded: suppresses Cmaxand delays Tmax”. In addition, the “Effect of SBTI on Compound PC-3's ability to release hydromorphone” value in series [7] (rats PO, PC-3 20 mg/kg with 500 mg/kg SBTI) was “attenuates Compound PC-3's ability to release hydromorphone, both with respect to suppressing Cmaxand delaying Tmax”. The “Effect of SBTI on Compound PC-4's ability to release hydromorphone” value in series [9] (rats PO, PC-4 20 mg/kg with 500 mg/kg SBTI) is listed as “attenuates Compound PC-4's ability to release hydromorphone, at least with respect to delaying Tmax”.

The term IC50 denotes the concentration at which inhibition is half-maximal. Read a low IC50 as higher potency.

Values taken from patent publication US20110262360A1, “Compositions Comprising Enzyme-Cleavable Phenol-Modified Opioid Prodrugs and Inhibitors Thereof” (priority 2010, published 2011).
